US6531308B2, “Ketoreductase gene and protein from yeast” (Eli Lilly and Company, priority 1997, dated 2003)

Test system: wild-type ketoreductase from Z. rouxii (SEQ ID NO: 2)
Experiment: Reductase activity of Z. rouxii ketoreductase, substrate specificity (NADPH oxidation, absorbance at 340 nm)
Format: biochemical
Protocol: Reductase activity was measured using a suitable substrate and a partially purified or substantially purified ketoreductase from Z. rouxii. Activity was measured as a function of the absorbance change at 340 nm, resulting from the oxidation of NADPH. […] Reaction mixtures were first equilibrated at 26° C. for 10 min in the absence of NADPH, and then initiated by addition of NADPH. […] The kinetic parameters for 3,4-methylenedioxyphenyl acetone were determined at an NADPH concentration of 112 μM and a 3,4-methylenedioxyphenyl acetone concentration that varied from 1.7 mM -7.2 mM. The kinetic parameters for NADPH were determined by maintaining the 3,4-methylenedioxyphenyl acetone concentration at 3 mM and the NADPH concentration was varied from 20.5 μM-236.0 μM. An extinction coefficient of 6220 M^−1 cm^−1 for NADPH absorbance at 340 nm was used to calculate the specific activity of the enzyme. For assays using isatin, the change in absorbance with time was measured at 414 nm using an extinction coefficient of 849 M^−1 cm^−1 to calculate activity. One Unit of activity corresponds to 1 μmol of NADPH consumed per minute. For assays carried out at differing pH values, 10 mM Bis-Tris and 10 mM Tris were adjusted to the appropriate pH with HCl. Kinetic parameters were determined by non-linear regression using the JMP® statistics and graphics program.

Structure (SMILES): CC(=O)CCc1ccc2c(c1)OCO2
- % Relative Activity (substrate concentration 5 mM): 18%

Structure (SMILES): CCOC(=O)CC(=O)CCl
- % Relative Activity (substrate concentration 5 mM): 42%

Structure (SMILES): CC(C)(CO)C(=O)C(=O)O
- % Relative Activity (substrate concentration 4 mM): 37%

Structure (SMILES): CC(=O)c1ccccc1
- % Relative Activity (substrate concentration 0.6 mM): 4%

Structure (SMILES): CC(=O)CCc1ccccc1
- % Relative Activity (substrate concentration 0.6 mM): 0%

Structure (SMILES): CC1(C)COC(=O)C1=O
- % Relative Activity (substrate concentration 3 mM): 194%

Structure (SMILES): O=C1Nc2ccccc2C1=O
- % Relative Activity (substrate concentration 0.8 mM): 86%

Structure (SMILES): CC(=O)CN1C(=O)c2ccccc2C1=O
- % Relative Activity (substrate concentration 0.6 mM): 17%

Structure (SMILES): CC1(C)[C@H]2CC[C@]1(C)C(=O)C2=O
- % Relative Activity (substrate concentration 5 mM): 100%

Structure (SMILES): CC1(C)[C@@H]2CC[C@@]1(C)C(=O)C2=O
- % Relative Activity (substrate concentration 5 mM): 32%

Structure (SMILES): CC(=O)Cc1ccc2c(c1)OCO2 [3,4-methylenedioxyphenyl acetone]
- % Relative Activity (substrate concentration 3 mM): 100%
